Results taken from PubChem BioAssay (NCI).
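Exposure lasted 48 hours, with cells grown in 96-well plates and compounds tested at five concentrations. The concentration for 50% growth inhibition is given as GI50. At the TGI there is no net growth.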

Tests used:
Assay in all cases: NCI anticancer screen, dose series, 48 h
OVCAR-4 ovarian = system: OVCAR-4 ovarian
SN12C renal = system: SN12C renal
SF-539 CNS = system: SF-539 CNS
SK-MEL-28 melanoma = system: SK-MEL-28 melanoma
MDA-MB-231 breast = system: MDA-MB-231 breast
UACC-257 melanoma = system: UACC-257 melanoma
786-0 renal = system: 786-0 renal
SF-268 CNS = system: SF-268 CNS
HCT-116 colon = system: HCT-116 colon
SK-MEL-2 melanoma = system: SK-MEL-2 melanoma
NCI-H226 lung = system: NCI-H226 lung
OVCAR-8 ovarian = system: OVCAR-8 ovarian
NCI-H522 lung = system: NCI-H522 lung
MCF7 breast = system: MCF7 breast
NCI/ADR-RES ovarian = system: NCI/ADR-RES ovarian
UACC-62 melanoma = system: UACC-62 melanoma
MALME-3M melanoma = system: MALME-3M melanoma
EKVX NSCLC = system: EKVX NSCLC
K-562 leukemia = system: K-562 leukemia
M14 melanoma = system: M14 melanoma
TK-10 renal = system: TK-10 renal
NCI-H460 lung = system: NCI-H460 lung
SF-295 CNS = system: SF-295 CNS
KM12 colon = system: KM12 colon
IGROV1 ovarian = system: IGROV1 ovarian
SK-OV-3 ovarian = system: SK-OV-3 ovarian
PC-3 prostate = system: PC-3 prostate
A498 renal = system: A498 renal
HL-60(TB) leukemia = system: HL-60(TB) leukemia
NCI-H23 lung = system: NCI-H23 lung
MOLT-4 leukemia = system: MOLT-4 leukemia
BT-549 breast = system: BT-549 breast
HOP-62 NSCLC = system: HOP-62 NSCLC
UO-31 renal = system: UO-31 renal
SK-MEL-5 melanoma = system: SK-MEL-5 melanoma
OVCAR-5 ovarian = system: OVCAR-5 ovarian
CAKI-1 renal = system: CAKI-1 renal
COLO 205 colon = system: COLO 205 colon
HOP-92 NSCLC = system: HOP-92 NSCLC
DU-145 prostate = system: DU-145 prostate
SR leukemia = system: SR leukemia
RXF 393 renal = system: RXF 393 renal
CCRF-CEM leukemia = system: CCRF-CEM leukemia
HT29 colon = system: HT29 colon
HS 578T breast = system: HS 578T breast
HCT-15 colon = system: HCT-15 colon
RPMI-8226 leukemia = system: RPMI-8226 leukemia
MDA-MB-435 = system: MDA-MB-435
U251 CNS = system: U251 CNS
ACHN renal = system: ACHN renal
SNB-19 CNS = system: SNB-19 CNS
T-47D breast = system: T-47D breast
SW-620 colon = system: SW-620 colon
HCC-2998 colon = system: HCC-2998 colon
A549 NSCLC = system: A549 NSCLC

SMILES: O=[N+]([O-])c1ccc(-c2nnc(SCc3ccc(O)c4ncccc34)n2-c2ccccc2)cc1
- GI50 (OVCAR-4 ovarian): 2.12 µM
- TGI (OVCAR-4 ovarian): > 100 µM
- GI50 (SN12C renal): 0.293 µM
- TGI (SN12C renal): > 100 µM
- GI50 (SF-539 CNS): 0.377 µM
- TGI (SF-539 CNS): > 100 µM
- GI50 (SK-MEL-28 melanoma): 0.715 µM
- TGI (SK-MEL-28 melanoma): > 100 µM
- GI50 (MDA-MB-231 breast): 1.05 µM
- TGI (MDA-MB-231 breast): 4.69 µM
- GI50 (UACC-257 melanoma): 1.38 µM
- TGI (UACC-257 melanoma): > 26.1 µM
- GI50 (786-0 renal): 1.36 µM
- TGI (786-0 renal): > 84.2 µM
- GI50 (SF-268 CNS): 0.36 µM
- TGI (SF-268 CNS): > 100 µM
- GI50 (HCT-116 colon): 0.127 µM
- TGI (HCT-116 colon): > 100 µM
- GI50 (SK-MEL-2 melanoma): 0.314 µM
- TGI (SK-MEL-2 melanoma): 1.82 µM
- GI50 (NCI-H226 lung): 4.3 µM
- TGI (NCI-H226 lung): > 100 µM
- GI50 (OVCAR-8 ovarian): 0.24 µM
- TGI (OVCAR-8 ovarian): > 100 µM
- GI50 (NCI-H522 lung): 0.253 µM
- TGI (NCI-H522 lung): > 29.6 µM
- GI50 (MCF7 breast): 0.325 µM
- TGI (MCF7 breast): > 100 µM
- GI50 (NCI/ADR-RES ovarian): 7.35 µM
- TGI (NCI/ADR-RES ovarian): > 100 µM
- GI50 (UACC-62 melanoma): 2.06 µM
- TGI (UACC-62 melanoma): > 100 µM
- GI50 (MALME-3M melanoma): 1.17 µM
- TGI (MALME-3M melanoma): 8.45 µM
- GI50 (EKVX NSCLC): 1.43 µM
- TGI (EKVX NSCLC): > 100 µM
- GI50 (K-562 leukemia): 0.447 µM
- TGI (K-562 leukemia): > 100 µM
- GI50 (M14 melanoma): 0.493 µM
- TGI (M14 melanoma): > 100 µM
- GI50 (TK-10 renal): 2.86 µM
- TGI (TK-10 renal): > 100 µM
- GI50 (NCI-H460 lung): 0.229 µM
- TGI (NCI-H460 lung): > 100 µM
- GI50 (SF-295 CNS): 0.444 µM
- TGI (SF-295 CNS): 5.04 µM
- GI50 (KM12 colon): 0.585 µM
- TGI (KM12 colon): > 100 µM
- GI50 (IGROV1 ovarian): 1.56 µM
- TGI (IGROV1 ovarian): > 100 µM
- GI50 (SK-OV-3 ovarian): 1.76 µM
- TGI (SK-OV-3 ovarian): 6.35 µM
- GI50 (PC-3 prostate): 0.114 µM
- TGI (PC-3 prostate): > 100 µM
- GI50 (A498 renal): 2.3 µM
- TGI (A498 renal): 17 µM
- GI50 (HL-60(TB) leukemia): 0.447 µM
- TGI (HL-60(TB) leukemia): > 22.9 µM
- GI50 (NCI-H23 lung): 0.433 µM
- TGI (NCI-H23 lung): > 100 µM
- GI50 (MOLT-4 leukemia): 0.777 µM
- TGI (MOLT-4 leukemia): > 100 µM
- GI50 (BT-549 breast): 0.175 µM
- TGI (BT-549 breast): > 100 µM
- GI50 (HOP-62 NSCLC): 0.99 µM
- TGI (HOP-62 NSCLC): > 100 µM
- GI50 (UO-31 renal): 1.95 µM
- TGI (UO-31 renal): > 100 µM
- GI50 (SK-MEL-5 melanoma): 0.363 µM
- TGI (SK-MEL-5 melanoma): 1.97 µM
- GI50 (OVCAR-5 ovarian): 3.35 µM
- TGI (OVCAR-5 ovarian): > 100 µM
- GI50 (CAKI-1 renal): 2.41 µM
- TGI (CAKI-1 renal): > 100 µM
- GI50 (COLO 205 colon): 2.51 µM
- TGI (COLO 205 colon): 7.02 µM
- GI50 (HOP-92 NSCLC): 0.069 µM
- TGI (HOP-92 NSCLC): 0.598 µM
- GI50 (DU-145 prostate): 0.442 µM
- TGI (DU-145 prostate): > 100 µM
- GI50 (SR leukemia): 0.42 µM
- TGI (SR leukemia): > 100 µM
- GI50 (RXF 393 renal): 0.651 µM
- TGI (RXF 393 renal): > 100 µM
- GI50 (CCRF-CEM leukemia): 0.507 µM
- TGI (CCRF-CEM leukemia): > 100 µM
- GI50 (HT29 colon): 3.19 µM
- TGI (HT29 colon): > 100 µM
- GI50 (HS 578T breast): 0.312 µM
- TGI (HS 578T breast): > 100 µM
- GI50 (HCT-15 colon): 1.05 µM
- TGI (HCT-15 colon): > 100 µM
- GI50 (RPMI-8226 leukemia): 0.695 µM
- TGI (RPMI-8226 leukemia): > 100 µM
- GI50 (MDA-MB-435): 0.329 µM
- TGI (MDA-MB-435): > 100 µM
- GI50 (U251 CNS): 0.191 µM
- TGI (U251 CNS): > 100 µM
- GI50 (ACHN renal): 2.03 µM
- TGI (ACHN renal): > 100 µM
- GI50 (SNB-19 CNS): 0.254 µM
- TGI (SNB-19 CNS): > 100 µM
- GI50 (T-47D breast): 0.834 µM
- TGI (T-47D breast): > 100 µM
- GI50 (SW-620 colon): 0.479 µM
- TGI (SW-620 colon): > 100 µM
- GI50 (HCC-2998 colon): 1.4 µM
- TGI (HCC-2998 colon): > 100 µM
- GI50 (A549 NSCLC): 0.41 µM
- TGI (A549 NSCLC): > 100 µM
